Earlier results, collected in patent US20140023726A1, “POLYMORPHISMS PREDICTIVE OF PLATINUM-COORDINATING COMPLEX INDUCED OTOTOXICITY” (The University of British Columbia, priority 2006, published 2014).
Like-named read-outs stand apart in the source and are kept apart here.

N.N.[Cl][Pt][Cl] [cisplatin, trans-diaminedichloro-platinum(II)]
Permanent hearing loss, frequency in patients (children less than 5, standard doses of cisplatin): 48% | Permanent hearing loss, frequency in patients (patients receiving standard doses of cisplatin): 25%
